Legend:
[1] = Liquid-liquid extraction of Li^+ from aqueous LiCl/NaCl solution, ion-selective electrode analysis; settings: 3 mL neat compound mixed with 3 mL aqueous solution containing 100 ppm LiCl and 100 ppm NaCl; aqueous phase analyzed by ion-selective electrode
Experimental: (§1) 3 ml of the compound [F·Me·Me] was added neat to 3 mL of an aqueous solution containing 100 ppm LiCl and 100 ppm NaCl. After vigorous mixing of the organic and aqueous phases in a separatory funnel, the phases were separated, and the aqueous phase was analyzed using ion-selective electrodes for both Li^+ and Na^+.

[2] = Liquid-liquid extraction of Na^+ from aqueous LiCl/NaCl solution, ion-selective electrode analysis; settings: 3 mL neat compound mixed with 3 mL aqueous solution containing 100 ppm LiCl and 100 ppm NaCl; aqueous phase analyzed by ion-selective electrode
Experimental: as §1

SMILES: COCCOCC(COCC(F)(F)F)OCCOC (centres unmarked) [[F·Me·Me]]
- Li^+ extracted by the compound [1]: 26.6%
- Na^+ extracted by the compound [2]: 7.3%

— patent US20240424426A1, “SOLVENTS FOR SELECTIVE COMPLEXATION OF METAL CATIONS” (THE BOARD OF TRUSTEES OF THE UNIVERSITY OF ALABAMA, priority 2023, published 2024)
